Literature values in patent US20210361600A1, “METHODS FOR INDUCING CHONDROGENESIS” (THE SCRIPPS RESEARCH INSTITUTE, priority 2017, published 2021).

Assays:
[1] = tested on: CBFβ; settings: previously demonstrated; cited from earlier work
[2] = tested on: FLNA FC-1 fragment; settings: previously validated with BKA affinity probe; cited from earlier work

O=C(O)c1ccccc1C(=O)Nc1ccc(-c2ccccc2)cc1 [KGN, kartogenin]
nuclear localization of CBFβ [1]: increase the nuclear localization of CBFβ | binding to FC-1 fragment of FLNA [2]: directly mediate the binding
